# Test results published in patent US9333188B2, “Composition and method for improving survival of bee colonies” (Science in Water B.V., priority 2012, dated 2016).
# Test system: bees
# Experiment: Beekeeper field trial: winter survival of bee hives after feeding
# Type: in vivo
# Settings: populations given only iron(II) fumarate
# Method: In a trial, a number or beekeepers (16) used a solution of vinasse containing dissolved iron(II) fumarate with the goal of reducing instances of winter mortality and CCD. This solution was mixed with 100-200 ml of sugar syrup. The solution thus obtained was administered to bees with their feed. The quantities and results were as follows: A total of approximately 1,000 mg of iron(II) fumarate, or 333 mg Fe (i.e. 5.8 millimoles iron(II)) was administered per 5 kg of bees. This quantity was administered in small portions. The initial moments of the series administrations ranged from 5 August 2011 to 15 September 2011. The administration frequencies ranged from one time per week to one time per 3 days. If administration was started late in the season, administration was one time per 3 days to ensure that a consistent total amount of iron(II) fumarate was administered across the test populations. […] In a control populations given only pure vinasse the queens were dead within 14 days; these populations were then not viable and after the death of the queen, remaining bees in the population were merged with another population. In one case, the total amount of iron(II) fumarate and vinasse was added to 15 kg of sugar syrup. This emulsion was administered as a winter sugar, until the mixture was consumed. […]
smiles,measurement,value
O=C([O-])/C=C/C(=O)[O-].[Fe+2] [iron(II) fumarate],winter survival of control populations,"survived the winter, but in a very weak state"
